Source: patent US20090209554A1, “Thiazoliums as transketolase inhibitors” (ARRAY BIOPHARMA INC., priority 2004, published 2009)
pIC50: −log10 of the molar value.

Assays:
[1] = molecular target: T1, transketolase (TK) in colon carcinoma HCT116 cells (Homo sapiens, UniProt P29401); experiment: Cellular transketolase inhibition assay in HCT116; format: cell-based; settings: colon carcinoma HCT116, thiamine-free DMEM, 48 h after compound treatment, TK activity in lysate
T1 construct: endogenous in cells; host or cells: HCT116
T1 sequence (P29401 1-623): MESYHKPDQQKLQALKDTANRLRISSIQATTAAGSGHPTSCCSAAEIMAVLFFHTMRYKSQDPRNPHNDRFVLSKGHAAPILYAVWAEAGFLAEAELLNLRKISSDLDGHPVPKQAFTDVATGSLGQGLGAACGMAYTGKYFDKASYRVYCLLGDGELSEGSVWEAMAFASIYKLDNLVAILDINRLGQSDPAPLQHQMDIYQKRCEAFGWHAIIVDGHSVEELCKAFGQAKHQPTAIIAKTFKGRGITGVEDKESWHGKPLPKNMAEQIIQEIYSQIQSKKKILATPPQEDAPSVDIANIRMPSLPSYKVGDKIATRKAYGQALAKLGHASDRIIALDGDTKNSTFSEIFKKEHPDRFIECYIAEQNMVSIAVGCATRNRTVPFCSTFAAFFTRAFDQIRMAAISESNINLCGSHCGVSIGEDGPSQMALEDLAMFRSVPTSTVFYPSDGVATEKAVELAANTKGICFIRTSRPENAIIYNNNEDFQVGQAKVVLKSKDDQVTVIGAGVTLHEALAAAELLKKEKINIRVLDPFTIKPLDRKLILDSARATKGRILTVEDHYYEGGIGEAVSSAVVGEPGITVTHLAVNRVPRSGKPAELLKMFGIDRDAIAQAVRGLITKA
Experimental: Determining Inhibition Constants of TPP Mimetics in Cellular Assay
Log-phase cells were trypsinized, washed and resuspended in thiamine-free DMEM. Optimization of the initial cell counts was carried out for each cell line prior to IC50 measurements. […] Using this initial cell count, IC50 could be monitored for six days.
Media containing 8,000 cells (95 μl) were used to seed individual wells in a 96-well clear-bottom cell cultured-treated sterile plate. Inhibitor compounds were dissolved in 100% DMSO as 10 mM solutions. Serial dilutions were then made in 100% DMSO to make up a 100× stock, then diluted to 20× in double-deionized H2O (ddH2O). Twenty-four hours after seeding, 5 μl of 20× inhibitor compound stock solution was added to the cells so that the final concentration of DMSO was 1%. Media were changed after 24 hours. Forty-eight hours after inhibitor compound treatment, the plates were inverted to remove media and blotted on a paper towel. The plates were then either subjected to enzymatic reactions immediately or were frozen at −20° C. for future assays.
Lysis buffer (20 mM HEPES, pH 7.5, 1 mM EDTA, 0.2 g/l Triton X-100® and 0.2 g/L sodium deoxycholate, supplemented with 1 mM DTT and 1 mM PMSF just before use, 80 μl) were added to each well of the assay plate and allow cell lysis at RT with shaking. Then 15 ul of 5× assay buffer containing final concentrations of 50 mM HEPES, 40 mM KCl, 2.5 mM MgCl2, 5 mM NaArsenate, 1 mM NAD, 2 unit/ml glyceraldehyde-3-phosphate dehydrogenase (GAPDH) was added to the 80 ul of lysate. Reaction kinetics were monitored on a fluorescent plate reader to allow any possible background activity via GAPDH to burn out. Then 5 ul of substrate mix containing final concentrations of 0.5 mM ribose-5-phosphate and 0.5 mM xylulose-5-phosphate was added to initiate the reaction. Monitor reaction kinetics were monitored using a fluorescent plate reader and the slope of the initial linear range was recorded as the velocity of the reaction (FU/min). Enzymatic inhibition was expressed as percent of control wells that were not treated with compounds. The values (y) were plotted as function of the log concentration (x) and fitted to a sigmoidal dose-response curve with variable slopes that bears the equation: y-bottom+(top-bottom)/(1+10̂((log EC50−x)*hillslope)).

[2] = molecular target: T2, transketolase (purified TK apo enzyme) (Homo sapiens, UniProt P29401); experiment: TPK-apoTK coupled cell-free TK inhibition assay (pyrophosphorylated compounds competing with TPP); format: biochemical; settings: compound enzymatically pyrophosphorylated by TPK1; 100 nM TK, 20 μM TPP
T2 sequence (P29401 1-623): T1 sequence (P29401 1-623)
Experimental: Determining Inhibition Constants of TPP Mimetics in Cell Free Assay (Purified TK apo Enzyme) Compounds scored as TPK1 substrates were then enzymatically converted to pyrophosphate and assessed for an ability to compete with TPP in inhibiting TK activity. The TK inhibition assay was carried out as follows. The pyrophosphorylation reaction mix consisted of 50 mM HEPES, 1 mM DTT, 1 mM MgCl2, pH 8.0, 1 to 10 mM thiamine analog, and 40 mM Mg-ATP. TKP1 (46.2 μg) was added in 10 μL aliquots every hour for 5 hours. The reaction mix was then incubated overnight at 4° C. TPK1 was removed by ultra-filtration using a 10,000 MWCO filter. The extent of reaction was monitored as described above. […] The above reaction mix (40 μL) was placed in a well of a Costar 3695 half-area plate and pre-incubated at room temperature for 30 min. It was then incubated for 2 minutes at 30° C. The reaction was initiated with the addition of 10 μL pentose phosphates (xylulose 5-phosphate and ribose 5-phosphate) with a final concentration of 0.5 mM. The reaction was monitored at 340 nm using a Molecular Devices Spectramax M2 plate reader. “TPK-TK” in the second column in Table 1 designates the thiamine pyrophosphate kinase/transketolase coupled reaction.

| Structure (SMILES) | pIC50 [1] | pIC50 [2] |
| --- | --- | --- |
| Cc1c(CCO)sc[n+]1Cc1ccccc1[N+](=O)[O-] | < 4.00 | 6.96 |
| Cc1ccc(C[n+]2c(C(C)O)sc(CCO)c2C)c(N)n1 (stereo not shown) | 7.47 | 7.04 |
| Cc1ccc(C[n+]2csc(CCCO)c2C)c(N)n1 | 5.99 |  |
| CCc1ccc(C[n+]2csc(CCO)c2C)c(N)n1 | 7.13 |  |
| Cc1cc(C)c(C[n+]2csc(CCO)c2)c(N)n1 | 4.90 |  |
| Cc1ccc(C[n+]2csc(CCC#N)c2C)c(N)n1 | 5.66 |  |
| CC(=O)OCCc1sc[n+](Cc2ccc(C)nc2N)c1C | 8.22 |  |
| Cc1ccc(C[n+]2csc(CCO)c2CO)c(N)n1 | 6.63 | 7.60 |
| Cc1ccc(C[n+]2csc([C@@H](O)CO)c2C)c(N)n1 | 5.66 | 7.57 |
| Cc1ccc(C[n+]2csc(CCO)c2)c(N)n1 | 5.02 | 7.54 |
| Cc1cc(C)c(C[n+]2csc(C(O)CO)c2C)c(N)n1 (stereo not shown) | 5.50 | 7.05 |
| Cc1c(CCO)sc[n+]1Cc1cccnc1C#N | < 4.48 | 6.91 |
| Cc1c(CCO)sc[n+]1Cc1ccc(Cl)nc1N | 6.81 |  |
| Cc1c(CCO)sc[n+]1Cc1ccc(C#N)nc1N | 6.45 | 7.24 |
| Cc1c(CCO)sc[n+]1Cc1ccc(N2C(=O)c3ccccc3C2=O)nc1 | 5.50 | 6.84 |
| Cc1ccc(C[n+]2c(-c3ccc4c(c3)OCO4)sc(CCO)c2C)c(N)n1 | 4.59 |  |
| Cc1ncc(C[n+]2csc(CCO)c2C)c(=O)[nH]1 | 7.12 |  |
| Cc1cnc(N)c(C[n+]2csc(CCO)c2C)c1 | 6.06 | 6.96 |
| Cc1ccc(C[n+]2c(C)sc(CO)c2C)c(N)n1 | 6.63 |  |
| Cc1c(CCO)sc[n+]1Cc1ccccc1N | < 4.00 | 6.70 |

| Structure (SMILES) | pIC50 [1] | pIC50 [2] |
| --- | --- | --- |
| Cc1c(CCO)sc[n+]1Cc1ccc(C(F)(F)F)nc1 | 6.33 | 6.41 |
| CCc1c(CCO)sc[n+]1Cc1ccc(C)nc1N | 5.76 |  |
| Cc1c(CCO)sc[n+]1Cc1cccnc1N | 6.95 | 7.44 |
| Cc1c(CCO)sc[n+]1Cc1cccc(N2C(=O)c3ccccc3C2=O)n1 | < 4.00 |  |
| Cc1c(CCO)sc[n+]1Cc1ccc(C(F)(F)F)nc1N | 6.92 | 6.98 |
| Cc1ccc(C[n+]2cc(CCO)sc2C)c(N)n1 | 6.31 | 7.45 |
| Cc1c(CCO)sc[n+]1Cc1ccsc1C(N)=O | < 4.48 |  |
| Cc1c(CCO)sc[n+]1Cc1cncnc1 | < 4.00 | 5.84 |
| Cc1c(CCO)sc[n+]1Cc1cnccc1N | 4.62 | 7.19 |
| Cc1ccc(C[n+]2c(C)sc(CCO)c2C)c(N)n1 [drawing 48] | 7.51 |  |
| Cc1c(CCO)sc[n+]1Cc1cc([N+](=O)[O-])ccc1O | < 4.00 |  |
| COC(=O)CCc1sc[n+](Cc2ccc(C)nc2N)c1C | 5.63 |  |
| Cc1c(CCO)sc[n+]1Cc1ccccc1 | < 4.00 | 6.47 |
| CC(=O)Nc1ccc(C[n+]2csc(CCO)c2C)c(N)n1 | 6.10 | 7.65 |
| Cc1ccc(C[n+]2c(C)sc(CCO)c2C)c(N)n1 [drawing 55] | 7.31 | 7.61 |
| Cc1ncc(C[n+]2c(C(C)O)sc(CCO)c2C)c(N)n1 (stereo not shown) | < 4.00 | 6.07 |
| COc1ncc(CO)c(N)n1 | < 4.00 |  |
| CCc1sc(CCO)c(C)[n+]1Cc1ccc(C)nc1N | 7.59 | 7.12 |
| Cc1cc(C)c(C[n+]2cc(CCO)sc2C)c(N)n1 | 4.58 |  |
| Cc1ncc(C[n+]2c(C)sc(CCO)c2C)c(N)n1 | 6.67 |  |

| Structure (SMILES) | pIC50 [1] | pIC50 [2] |
| --- | --- | --- |
| Cc1ccc(C[n+]2csc(C(O)CO)c2C)c(N)n1 (stereo not shown) | 6.57 | 7.27 |
| Cc1cncc(C[n+]2csc(CCO)c2C)c1 | 4.42 |  |
| Cc1cnc(C[n+]2csc(CCO)c2C)c(N)n1 | 6.39 | 7.82 |
| Cc1ccc(C[n+]2csc([C@H](O)CO)c2C)c(N)n1 | 7.21 | 7.55 |
| Cc1c(CCO)sc[n+]1Cc1nccnc1N | 4.78 | 7.21 |
| Cc1c(CCO)sc[n+]1Cc1cccnc1 | 6.14 | 7.15 |
| CC(=O)Nc1ccc(C[n+]2csc(CCO)c2C)cc1 | 4.61 | 8.05 |
| Cc1c(CCO)sc[n+]1Cc1ccncc1 | < 4.00 | 6.38 |
| Cc1ccc(C[n+]2csc(CCO)c2C)c(N)n1 | 7.52 | 7.66 |
| Cc1cc(C[n+]2csc(CCO)c2C)no1 | 5.29 |  |
| Cc1c(CCO)sc[n+]1Cc1ccsc1C#N | < 4.48 | 6.86 |
| Cc1c(CCO)sc[n+]1Cc1cncc(C#N)c1 | 3.93 | 6.53 |
| Cc1c(CCO)sc[n+]1Cc1ccc(C(=O)O)cc1 | < 4.00 |  |
| Cc1cc(C)c(C[n+]2csc(CCO)c2C)c(N)n1 | 6.88 | 7.47 |
| COc1ccc(C[n+]2csc(CCO)c2C)c(NC(C)=O)n1 | 3.77 |  |
| Cc1ccc(C[n+]2c(Cc3cccnc3)sc(CCO)c2C)c(N)n1 | 6.08 |  |
| Cc1c(CCO)sc[n+]1Cc1ccccn1 | < 4.00 |  |
| COC(=O)c1cncc(C[n+]2csc(CCO)c2C)c1 | < 4.00 | 6.42 |
| Cc1c(CCO)sc[n+]1Cc1ccc(N)nc1 | 5.79 | 8.16 |
